The values that follow come from ChEMBL document CHEMBL6071172, “Addressing the Intracellular Vestibule of the Plasmodial Lactate Transporter PfFNT by p-Substituted Inhibitors Amplifies In Vitro Activity” (J Med Chem, 2024).

Each structure is given as a SMILES string. The source made the active and inactive calls. No cut-off for these calls is given here.

Series [1] concerns Plasmodium falciparum. The series can be described thus: Antiplasmodial activity against Plasmodium falciparum 3D7 infected in erythrocytes incubated for 48 hrs with media replenishment with compound after 24 hrs by LSR II FACS analysis. The format is functional, organism-based. The settings on record: 3D7, Erythrocyte.
Series [2] relates to HepG2. The series can be described thus: Cytotoxicity against human HepG2 cells assessed as reduction in nuclei count at >10 uM by Hoechst 33342 staining based microscopic analysis. The settings on record: hepg2, 10 µM. The format is toxicity, cell-based.
In series [3] the test system is HEK293. As to the kind of experiment: Cytotoxicity against HEK293 cells assessed as change in ATP level upto 100 uM by CellTiter-Glo assay. The format is toxicity, cell-based. The settings on record: human, hek293, 100 µM.
The subject of series [4] is HEK293. The series can be described thus: Cytotoxicity against HEK293 cells assessed as change in redox capability of cytosol upto 100 uM by resazurin dye based fluorescence microplate reader. The settings on record: human. The format is toxicity, cell-based.
For series [5], the system named is HepG2. As to the kind of experiment: Cytotoxicity against human HepG2 cells assessed as change in ATP level upto 100 uM by CellTiter-Glo assay. The settings on record: hepg2, 100 µM. The format is toxicity, cell-based.
The subject of series [6] is HEK293. The series can be described thus: Cytotoxicity against HEK293 cells assessed as reduction in nuclei count at >10 uM by Hoechst 33342 staining based microscopic analysis. The format is toxicity, cell-based. The settings on record: human, hek293, 10 µM.
The test system of series [7] is HepG2. The series can be described thus: Cytotoxicity against human HepG2 cells assessed as change in redox capability of cytosol upto 100 uM by CellTiter-Glo assay. The format is toxicity, cell-based.
Series [8] is described as follows: Metabolic stability in pooled human liver microsomes assessed as intrinsic clearance at 1 uM by LC-MS/MS analysis. The format is ADME, Microsome. The settings on record: read-out: CLH.
Series [9] in a line: Dissociation constant, pKa of compound. The format is physicochemical.
Series [10] can be described thus: Inhibition of Plasmodium falciparum FNT extracted from Saccharomyces cerevisiae W303-1A jen1 delta ady2 delta assessed as reduction in [1-14C]-L-lactate uptake preincubated for 20 mins followed by substrate addition by TriCrab liquid scintillation counter.
The nature of series [11]: Binding affinity to C-terminal GFP tagged Plasmodium falciparum FNT extracted from HEK293 cell membrane assessed as inhibition constant measured 10 times for 5 sec in presence of BH267.meta-DY647 tracer by fluorescence cross-correlation spectroscopic analysis. The format is cell membranes.
The test system of series [12] is Plasmodium falciparum. As to the kind of experiment: Antiplasmodial activity against Plasmodium falciparum 3D7 infected in erythrocytes assessed as inhibition of parasite growth at 50 nM incubated for 48 hrs with media replenishment with compound after 24 hrs by LSR II FACS analysis relative to control. The format is functional. To be noted: 3D7, Erythrocyte.
Series [13] in a line: Half-life in SCID mouse model infected with plasmodium falciparum 3D7 at 50 mg/kg/day, po administered for 4 days. To be noted: in vivo, time 4 day. The format is ADME, organism-based.
Series [14] can be described thus: Drug concentration in blood of SCID mouse model infected with plasmodium falciparum 3D7 at 50 mg/kg/day, po administered for 4 days. The format is ADME, organism-based. The settings on record: time 4 day, read-out: Ct.
For series [15], the system named is Plasmodium falciparum. As to the kind of experiment: Antiplasmodial activity against Plasmodium falciparum 3D7 infected in SCID mouse model assessed as decrease in parasite load at 150 mg/kg/day, po administered for 4 days. The format is functional, organism-based. To be noted: time 4.0 day.
The subject of series [16] is Plasmodium berghei. The series can be described thus: Antiplasmodial activity against Plasmodium berghei ANKA infected in malarial mouse model assessed as elimination of parasitemia at 3 to 30 mg/kg/day, po administered for 4 days by flow cytometric analysis relative to control. The format is functional. The settings on record: dose 3-30 mg/kg/day, time 4 day.

With `CC(=O)Nc1ccc(C(=O)/C=C(\O)C(F)(F)C(F)(F)F)cn1`, in [1], the half-maximal effective concentration (EC50) was below 0.1 µM. The Activity result in [2], in series [3], in series [4], in series [5], in [6] and in [7] was “Non-Toxic” in each case. In addition, in series [8], the CLint scaled at 1 µM stood at 10.6 mL/min/kg.
`FC(F)(F)C(F)(F)c1cc(-c2cccnc2)n[nH]1` yielded a pKa in series [9] of 10.
For the molecule `COc1ccc(C(=O)/C=C(\O)C(F)(F)C(F)(F)F)c(O)c1`, in series [10], the half-maximal inhibitory concentration (IC50) amounted to 0.17 µM. The Ki in series [11] came out at 0.083 µM. The inhibition at 0.05 µM in series [12] was below 10%.
Regarding `CCCNc1ccc(C(=O)/C=C(\O)C(F)(F)C(F)(F)F)cn1`, the Activity result in series [2], in series [3], in series [4], in [5], in [6] and in [7] was “Non-Toxic” each time. This molecule also gave a half-life in series [13] of 2 h. Also, the concentration at 96 h in [14] is around 2000 ng/mL. Moreover, the outcome in [15] was Active. In addition, the CLint scaled at 1 µM in series [8] turned out to be 462 mL/min/kg.
As to `O=C(/C=C(\O)C(F)(F)C(F)(F)F)c1ccc(NCc2ccccc2)nc1`, the EC50 in [1] is below 0.1 µM.
As for `FC(F)(F)C(F)(F)c1nc(-c2cccnc2)n[nH]1`, in [9], the pKa amounted to 8.
On to `O=C(/C=C(\O)C(F)(F)C(F)(F)F)c1cccnc1`, for which the Activity in series [16] is above 99.7%. For the same molecule, in series [8], the CLint scaled at 1 µM came out at 3.98 mL/min/kg.
